Reference: the NIST ThermoML archive (doi:10.1021/acs.jced.6b00092)
± gives the expanded uncertainty stated by the source.

How the values were obtained:
[1] = Liquid; for mass density: 298.15 K, 101.33 kPa, Vibrating tube method; for vapor or sublimation pressure / Normal boiling temperature: Ebulliometric method (Recirculating still)
[2] = refractive index (Na D-line) (dimensionless); conditions: 298.15 K; 101.33 kPa; Liquid; Standard Abbe refractometry

Row | mass density [1] [kg/m3] | vapor or sublimation pressure ([1]; 379.01 K) [kPa] | vapor or sublimation pressure ([1]; 389.52 K) [kPa] | vapor or sublimation pressure ([1]; 397.48 K) [kPa] | Normal boiling temperature [1] [°C] | refractive index [2] | vapor or sublimation pressure ([1]; 442.09 K) [kPa] | vapor or sublimation pressure ([1]; 453.84 K) [kPa] | vapor or sublimation pressure ([1]; 462.67 K) [kPa] | SMILES | vapor or sublimation pressure ([1]; 473.44 K) [kPa] | vapor or sublimation pressure ([1]; 485.11 K) [kPa] | vapor or sublimation pressure ([1]; 493.78 K) [kPa]
1 | 807.3 ± 10 | 40 ± 8 | 60 ± 12 | 80 ± 16 | 130.70 ± 4 | 1.4055 ± 0.0004 |  |  |  | CC(C)CCO [3-methylbutan-1-ol] |  |  | 
2 | 915.6 ± 10 |  |  |  | 197.30 ± 4 | 1.4265 ± 0.0004 | 40 ± 7 | 60 ± 8 | 80 ± 9 | CC(O)CC(C)(C)O (stereo not drawn) [2-methyl-2,4-pentanediol] |  |  | 

Row | SMILES | mass density [1] [kg/m3] | vapor or sublimation pressure ([1]; 379.01 K) [kPa] | vapor or sublimation pressure ([1]; 389.52 K) [kPa] | vapor or sublimation pressure ([1]; 397.48 K) [kPa] | Normal boiling temperature [1] [°C] | refractive index [2] | vapor or sublimation pressure ([1]; 442.09 K) [kPa] | vapor or sublimation pressure ([1]; 453.84 K) [kPa] | vapor or sublimation pressure ([1]; 462.67 K) [kPa] | vapor or sublimation pressure ([1]; 473.44 K) [kPa] | vapor or sublimation pressure ([1]; 485.11 K) [kPa] | vapor or sublimation pressure ([1]; 493.78 K) [kPa]
3 | OCCCCO [1,4-butanediol] | 1012.96 ± 10 |  |  |  | 227.93 ± 4 | 1.4447 ± 0.0004 |  |  |  | 40 ± 7 | 60 ± 8 | 80 ± 9
